From US9890171B2, “Aldosterone synthase inhibitors” (Boehringer Ingelheim International GmbH, priority 2014, dated 2018)

These molecules were tested against aldosterone synthase (CYP11B2) (Macaca fascicularis, UniProt A0A2K5UPL9) (assay: aldosterone synthase inhibition assay). Settings: cynomolgus adrenal gland mitochondria, 2 μM corticosterone, aldosterone quantified by mass spectrometry.
Sequence of aldosterone synthase (CYP11B2) (A0A2K5UPL9 1-503): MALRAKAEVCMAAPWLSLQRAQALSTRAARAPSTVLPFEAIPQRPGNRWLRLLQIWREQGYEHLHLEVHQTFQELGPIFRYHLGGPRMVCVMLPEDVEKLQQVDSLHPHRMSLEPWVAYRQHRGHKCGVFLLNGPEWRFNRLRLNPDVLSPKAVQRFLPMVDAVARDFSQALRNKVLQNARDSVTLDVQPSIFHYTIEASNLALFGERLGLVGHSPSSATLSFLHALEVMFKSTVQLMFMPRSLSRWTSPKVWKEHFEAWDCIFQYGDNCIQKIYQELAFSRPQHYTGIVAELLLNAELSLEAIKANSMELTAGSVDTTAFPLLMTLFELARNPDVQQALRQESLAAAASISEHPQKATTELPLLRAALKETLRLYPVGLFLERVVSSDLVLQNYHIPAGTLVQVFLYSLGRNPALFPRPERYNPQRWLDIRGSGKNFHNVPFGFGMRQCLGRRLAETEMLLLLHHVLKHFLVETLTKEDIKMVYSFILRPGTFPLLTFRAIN
Type: biochemical, cynomolgus monkey
Method in brief: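 Cynomolgus adrenal mitochondria ([…]) used as CYP11B2 source with 2 μM corticosterone in 100 mM potassium phosphate pH 7.4, 1% DMSO; reaction started with 1 mM NADPH, run 60-90 min at 37° C. Aldosterone measured by mass spectrometry; IC50 from 4-parameter logistic fit, no-NADPH blank as 0%.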
In the case of `NC(=O)N1CCCc2cc(-c3cncc4c3C(O)COC4)cnc21` (single isomer, unassigned) [Compound 161, 6-(4-Hydroxy-3,4-dihydro-1H-pyrano[3,4-c]pyridin-5-yl)-3,4-dihydro-2H-[1,8]naphthyridine-1-carboxylic acid amide], the IC50 is reported as 35.3 nM.
Work on `NC(=O)N1CCCc2cc(-c3cncc4c3C(O)COC4)cnc21` (single isomer, unassigned) [Compound 162, 6-(4-Hydroxy-3,4-dihydro-1H-pyrano[3,4-c]pyridin-5-yl)-3,4-dihydro-2H-[1,8]naphthyridine-1-carboxylic acid amide] yielded an IC50 of 71.4 nM.
In the case of `NC(=O)N1CCCc2cc(-c3cncc4c3COCC4O)cnc21` (single isomer, unassigned) [Compound 163, 6-(4-Hydroxy-3,4-dihydro-1H-pyrano[4,3-c]pyridin-8-yl)-3,4-dihydro-2H-[1,8]naphthyridine-1-carboxylic acid amide], the IC50 is reported as 44.3 nM.
`NC(=O)N1CCCc2cc(-c3cncc4c3COCC4O)cnc21` (single isomer, unassigned) [Compound 164, 6-(4-Hydroxy-3,4-dihydro-1H-pyrano[4,3-c]pyridin-8-yl)-3,4-dihydro-2H-[1,8]naphthyridine-1-carboxylic acid amide] was tested, and the IC50 was 41.5 nM.
With `Cn1ncc2ccc(-c3cncc4c3C(O)COC4)cc21` (single isomer, unassigned) [Compound 165, 5-(1-Methyl-1H-indazol-6-yl)-3,4-dihydro-1H-pyrano[3,4-c]pyridin-4-ol] the IC50 was 224 nM.
In the case of `Cn1ncc2ccc(-c3cncc4c3C(O)COC4)cc21` (single isomer, unassigned) [Compound 166, 5-(1-Methyl-1H-indazol-6-yl)-3,4-dihydro-1H-pyrano[3,4-c]pyridin-4-ol], the IC50 is reported as 36.5 nM.
Work on `OC1COCc2cncc(-c3ccc4cnccc4c3)c21` (single isomer, unassigned) [Compound 167, 5-Isoquinolin-6-yl-3,4-dihydro-1H-pyrano[3,4-c]pyridin-4-ol] yielded an IC50 of 156 nM.
In the case of `OC1COCc2cncc(-c3ccc4cnccc4c3)c21` (single isomer, unassigned) [Compound 168, 5-Isoquinolin-6-yl-3,4-dihydro-1H-pyrano[3,4-c]pyridin-4-ol], the IC50 is reported as 40.5 nM.
For `Cn1ncc2ccc(-c3cncc4c3COCC4(C)O)cc21` (single isomer, unassigned) [Compound 169, 4-Methyl-8-(1-methyl-1H-indazol-6-yl)-3,4-dihydro-1H-pyrano[4,3-c]pyridin-4-ol], the IC50 was 13.9 nM.
`Cn1ncc2ccc(-c3cncc4c3COCC4(C)O)cc21` (single isomer, unassigned) [Compound 170, 4-Methyl-8-(1-methyl-1H-indazol-6-yl)-3,4-dihydro-1H-pyrano[4,3-c]pyridin-4-ol] showed an IC50 of 7.8 nM.
Molecule `Cn1nc(F)c2ccc(-c3cncc4c3COCC4(C)O)cc21` (single isomer, unassigned) [Compound 171, 8-(3-Fluoro-1-methyl-1H-indazol-6-yl)-4-methyl-3,4-dihydro-1H-pyrano[4,3-c]pyridin-4-ol] has an IC50 of 19.1 nM.
`Cn1nc(F)c2ccc(-c3cncc4c3COCC4(C)O)cc21` (single isomer, unassigned) [Compound 172, 8-(3-Fluoro-1-methyl-1H-indazol-6-yl)-4-methyl-3,4-dihydro-1H-pyrano[4,3-c]pyridin-4-ol] showed an IC50 of 10.2 nM.
`Cn1ncc2c(C#N)cc(-c3cncc4c3COCC4(C)O)cc21` (single isomer, unassigned) [Compound 173, 6-(4-Hydroxy-4-methyl-3,4-dihydro-1H-pyrano[4,3-c]pyridin-8-yl)-1-methyl-1H-indazole-4-carbonitrile] was tested, and the IC50 was 340 nM.
`Cn1ncc2c(C#N)cc(-c3cncc4c3COCC4(C)O)cc21` (single isomer, unassigned) [Compound 174, 6-(4-Hydroxy-4-methyl-3,4-dihydro-1H-pyrano[4,3-c]pyridin-8-yl)-1-methyl-1H-indazole-4-carbonitrile] gave an IC50 of 4400 nM.
`Cn1ncc2c(F)cc(-c3cncc4c3COCC4(C)O)cc21` (single isomer, unassigned) [Compound 175, 8-(4-Fluoro-1-methyl-1H-indazol-6-yl)-4-methyl-3,4-dihydro-1H-pyrano[4,3-c]pyridin-4-ol] showed an IC50 of 21.6 nM.
With `Cn1ncc2c(F)cc(-c3cncc4c3COCC4(C)O)cc21` (single isomer, unassigned) [Compound 176, 8-(4-Fluoro-1-methyl-1H-indazol-6-yl)-4-methyl-3,4-dihydro-1H-pyrano[4,3-c]pyridin-4-ol] the IC50 was 13.4 nM.
`Cn1nc(C#N)c2ccc(-c3cncc4c3COCC4(C)O)cc21` (single isomer, unassigned) [Compound 177, 6-(4-Hydroxy-4-methyl-3,4-dihydro-1H-pyrano[4,3-c]pyridin-8-yl)-1-methyl-1H-indazole-3-carbonitrile] gave an IC50 of 42.8 nM.
`Cn1nc(C#N)c2ccc(-c3cncc4c3COCC4(C)O)cc21` (single isomer, unassigned) [Compound 178, 6-(4-Hydroxy-4-methyl-3,4-dihydro-1H-pyrano[4,3-c]pyridin-8-yl)-1-methyl-1H-indazole-3-carbonitrile] showed an IC50 of 15 nM.
`Cn1ncc2ccc(-c3cncc4c3C(C)(O)COC4)cc21` (single isomer, unassigned) [Compound 179, 4-Methyl-5-(1-methyl-1H-indazol-6-yl)-3,4-dihydro-1H-pyrano[3,4-c]pyridin-4-ol] gave an IC50 of 38.9 nM.
`Cn1ncc2ccc(-c3cncc4c3C(C)(O)COC4)cc21` (single isomer, unassigned) [Compound 180, 4-Methyl-5-(1-methyl-1H-indazol-6-yl)-3,4-dihydro-1H-pyrano[3,4-c]pyridin-4-ol] showed an IC50 of 281 nM.
In the case of `O=C1CCc2nc(-c3cncc4c3COCC4O)ccc21` (single isomer, unassigned) [Compound 181, 2-(4-Hydroxy-3,4-dihydro-1H-pyrano[4,3-c]pyridin-8-yl)-6,7-dihydro-[1]pyrindin-5-one], the IC50 is reported as 150 nM.
With `CC1(C)COc2ccc(-c3cncc4c3COCC4O)cc21` (single isomer, unassigned) [Compound 182, 8-(3,3-Dimethyl-2,3-dihydro-benzofuran-5-yl)-3,4-dihydro-1H-pyrano[4,3-c]pyridin-4-ol] the IC50 was 496 nM.
For `O=C1CCc2cc(-c3cncc4c3COCC4O)ccc21` (single isomer, unassigned) [Compound 183, 5-(4-Hydroxy-3,4-dihydro-1H-pyrano[4,3-c]pyridin-8-yl)-indan-1-one], the IC50 was 52 nM.
For `CN(C)C1COCc2c(-c3ccc4cnn(C)c4c3)cncc21` (single isomer, unassigned) [Compound 185, Dimethyl-[8-(1-methyl-1H-indazol-6-yl)-3,4-dihydro-1H-pyrano[4,3-c]pyridin-4-yl]-amine], the IC50 was 18 nM.
Work on `N#CC1CC=C(c2cncc3c2COCC3O)CC1` (single isomer, unassigned) [Compound 186, 4-(4-Hydroxy-3,4-dihydro-1H-pyrano[4,3-c]pyridin-8-yl)-cyclohex-3-enecarbonitrile] yielded an IC50 of 67 nM.
With `Cn1ncc2c1C=C(c1cncc3c1COCC3O)CC2` (single isomer, unassigned) [Compound 187, 8-(1-Methyl-4,5-dihydro-1H-indazol-6-yl)-3,4-dihydro-1H-pyrano[4,3-c]pyridin-4-ol] the IC50 was 12.9 nM.
